Test results: ChEMBL document CHEMBL1151168, “Cytotoxic sterols and saponins from the starfish Certonardoa semiregularis” (2004)
In brackets after ≈: the same amount, converted by molar mass.

Experiments:
Type in all cases: functional
Conditions in all cases: read-out: ED50 (the source's name)
A549 = assay: Cytotoxicity against human A549 cells
XF498 = assay: Cytotoxicity against human XF498 cells
SK-MEL-2 = assay: Cytotoxicity against human SK-MEL-2 cells
SK-OV-3 = assay: Cytotoxicity against human SKOV3 cells
HCT-15 = assay: Cytotoxicity against human HCT15 cells

Question: Which results are given for `C[C@H](/C=C/[C@@H](C)[C@H]1CC(O)[C@H]2[C@@H]3CC(O)[C@H]4C[C@@H](O)CC[C@]4(C)[C@H]3CC[C@]12C)[C@H](C)CO` (single isomer, unassigned) [CERTONARDOSTEROL E3]?
Answer: EC50 (A549): 0.54 µg/mL (≈ 1.2 µM); EC50 (XF498): 0.33 µg/mL (≈ 0.735 µM); EC50 (SK-MEL-2): 0.4 µg/mL (≈ 0.891 µM); EC50 (SK-OV-3): 0.69 µg/mL (≈ 1.54 µM); EC50 (HCT-15): 0.73 µg/mL (≈ 1.63 µM)

Question: Which EC50 (A549) does the source give for `CO[C@@H]1CO[C@@H](OCC[C@@H](CC[C@@H](C)[C@H]2[C@@H](O)[C@@H](O)[C@@H]3[C@]2(C)CC[C@@H]2[C@@]4(C)CC[C@H](O)[C@H](O)[C@@H]4[C@@H](O)C[C@]23O)C(C)C)[C@H](O)[C@H]1O` [CERTONARDOSIDE I2] here?
Answer: 4.26 µg/mL (≈ 6.47 µM)

Question: What about the EC50 (XF498) of the same compound?
Answer: 3.69 µg/mL (≈ 5.6 µM)

Question: What about the EC50 (SK-MEL-2) of the same compound?
Answer: 2.39 µg/mL (≈ 3.63 µM)

Question: What about the EC50 (SK-OV-3) of the same compound?
Answer: 3.06 µg/mL (≈ 4.64 µM)

Question: And the EC50 (HCT-15)?
Answer: 8.32 µg/mL (≈ 12.6 µM)

Question: Which EC50 (A549) does the source give for `CO[C@@H]1CO[C@@H](OCC[C@@H](CC[C@@H](C)[C@H]2[C@@H](O)[C@@H](O)[C@H]3[C@@H]4C[C@H](O)[C@H]5[C@@H](O)[C@@H](O)CC[C@]5(C)[C@H]4CC[C@]23C)C(C)C)[C@H](O)[C@H]1O` [CERTONARDOSIDE J2] here?
Answer: 3.41 µg/mL (≈ 5.3 µM)

Question: What about the EC50 (XF498) of the same compound?
Answer: 3.53 µg/mL (≈ 5.49 µM)

Question: What about the EC50 (SK-MEL-2) of the same compound?
Answer: 2.36 µg/mL (≈ 3.67 µM)

Question: What about the EC50 (SK-OV-3) of the same compound?
Answer: 3.29 µg/mL (≈ 5.12 µM)

Question: And the EC50 (HCT-15)?
Answer: 8.2 µg/mL (≈ 12.8 µM)

Question: How did the EC50 (A549) turn out when `CO[C@@H]1CO[C@@H](OCC[C@@H](/C=C/[C@@H](C)[C@H]2[C@@H](O)[C@@H](O)[C@H]3[C@@H]4C[C@H](O)[C@H]5[C@@H](O)[C@@H](O)CC[C@]5(C)[C@H]4CC[C@]23C)C(C)C)[C@H](O)[C@H]1O` [CERTONARDOSIDE J3] was run?
Answer: 0.83 µg/mL (≈ 1.3 µM)

Question: And the EC50 (XF498)?
Answer: 0.45 µg/mL (≈ 0.702 µM)

Question: And the EC50 (SK-MEL-2)?
Answer: 0.3 µg/mL (≈ 0.468 µM)

Question: What about the EC50 (SK-OV-3) of the same compound?
Answer: 0.74 µg/mL (≈ 1.15 µM)

Question: And the EC50 (HCT-15)?
Answer: 2.76 µg/mL (≈ 4.31 µM)

Question: With `CO[C@@H]1CO[C@@H](OCC[C@@H](CC[C@@H](C)[C@H]2[C@@H](O)[C@@H](O)[C@H]3[C@@H]4C[C@H](O)[C@H]5C[C@@H](O)CC[C@]5(C)[C@H]4CC[C@]23C)C(C)C)[C@H](O)[C@H]1O` [CERTONARDOSIDE O1] as the compound, how does the EC50 (A549) read?
Answer: 1.25 µg/mL (≈ 1.99 µM)

Question: And the EC50 (XF498)?
Answer: 0.74 µg/mL (≈ 1.18 µM)

Question: What about the EC50 (SK-MEL-2) of the same compound?
Answer: 0.68 µg/mL (≈ 1.08 µM)

Question: What about the EC50 (SK-OV-3) of the same compound?
Answer: 2 µg/mL (≈ 3.19 µM)

Question: And the EC50 (HCT-15)?
Answer: 2.28 µg/mL (≈ 3.64 µM)

Question: How did the EC50 (A549) turn out when `CO[C@@H]1CO[C@@H](OCC[C@@H](CC[C@@H](C)[C@H]2[C@@H](O)[C@@H](O)[C@@H]3[C@]2(C)CC[C@@H]2[C@@]4(C)CC[C@H](O)C[C@@H]4[C@@H](O)C[C@]23O)C(C)C)[C@H](O)[C@H]1O` [CERTONARDOSIDE P1] was run?
Answer: 0.87 µg/mL (≈ 1.35 µM)

Question: What about the EC50 (XF498) of the same compound?
Answer: 0.35 µg/mL (≈ 0.544 µM)

Question: And the EC50 (SK-MEL-2)?
Answer: 0.26 µg/mL (≈ 0.404 µM)

Question: And the EC50 (SK-OV-3)?
Answer: 0.89 µg/mL (≈ 1.38 µM)

Question: And the EC50 (HCT-15)?
Answer: 2.17 µg/mL (≈ 3.38 µM)

Question: With `C[C@H](/C=C/[C@@H](C)[C@H]1C[C@@H](O)[C@@H]2[C@]1(C)CC[C@@H]1[C@@]3(C)CC[C@H](O)[C@H](O)[C@@H]3[C@@H](O)C[C@]12O)[C@H](C)CO` [CERTONARDOSTEROL A2] as the compound, how does the EC50 (A549) read?
Answer: 1.75 µg/mL (≈ 3.64 µM)

Question: And the EC50 (XF498)?
Answer: 0.89 µg/mL (≈ 1.85 µM)

Question: And the EC50 (SK-MEL-2)?
Answer: 0.67 µg/mL (≈ 1.39 µM)

Question: And the EC50 (SK-OV-3)?
Answer: 1.13 µg/mL (≈ 2.35 µM)

Question: And the EC50 (HCT-15)?
Answer: 2.54 µg/mL (≈ 5.28 µM)

Question: What does the source list for `C[C@H](/C=C/[C@@H](C)[C@H]1C[C@@H](O)[C@H]2[C@@H]3C[C@H](O)[C@H]4[C@@H](O)[C@@H](O)CC[C@]4(C)[C@H]3CC[C@@]21C)[C@H](C)CO` [CERTONARDOSTEROL B2]?
Answer: EC50 (A549): 2.33 µg/mL (≈ 5.01 µM); EC50 (XF498): 2.21 µg/mL (≈ 4.76 µM); EC50 (SK-MEL-2): 2.23 µg/mL (≈ 4.8 µM); EC50 (SK-OV-3): 2.64 µg/mL (≈ 5.68 µM); EC50 (HCT-15): 2.71 µg/mL (≈ 5.83 µM)

Question: For `C[C@H](/C=C/[C@@H](C)[C@H]1C[C@@H](O)[C@@H]2[C@]1(C)CC[C@@H]1[C@@]3(C)CC[C@H](O)C[C@@H]3[C@@H](O)C[C@]12O)[C@H](C)CO` [CERTONARDOSTEROL C2], which EC50 (A549) is on record?
Answer: 0.15 µg/mL (≈ 0.323 µM)

Question: And the EC50 (XF498)?
Answer: 0.08 µg/mL (≈ 0.172 µM)

Question: And the EC50 (SK-MEL-2)?
Answer: < 0.1 µg/mL

Question: And the EC50 (SK-OV-3)?
Answer: 0.16 µg/mL (≈ 0.344 µM)

Question: What about the EC50 (HCT-15) of the same compound?
Answer: 0.25 µg/mL (≈ 0.538 µM)

Question: Which results are given for `CC(C)[C@H](/C=C/[C@@H](C)[C@H]1C[C@@H](O)[C@H]2[C@@H]3C[C@H](O)[C@H]4C[C@@H](O)CC[C@]4(C)[C@H]3CC[C@@]21C)CO` [CERTONARDOSTEROL D2]?
Answer: EC50 (A549): 0.15 µg/mL (≈ 0.334 µM); EC50 (XF498): 0.07 µg/mL (≈ 0.156 µM); EC50 (SK-MEL-2): 0.09 µg/mL (≈ 0.201 µM); EC50 (SK-OV-3): 0.08 µg/mL (≈ 0.178 µM); EC50 (HCT-15): 0.01 µg/mL (≈ 0.0223 µM)

Question: Which EC50 (A549) does the source give for `CC(C)[C@@H](CCO)CC[C@@H](C)[C@H]1C[C@@H](O)[C@H]2[C@@H]3C[C@H](O)[C@H]4C[C@@H](O)CC[C@]4(C)[C@H]3CC[C@@]21C` [CERTONARDOSTEROL D3] here?
Answer: 1.36 µg/mL (≈ 2.93 µM)

Question: And the EC50 (XF498)?
Answer: 0.84 µg/mL (≈ 1.81 µM)

Question: And the EC50 (SK-MEL-2)?
Answer: 0.68 µg/mL (≈ 1.46 µM)

Question: What about the EC50 (SK-OV-3) of the same compound?
Answer: 1.33 µg/mL (≈ 2.86 µM)

Question: What about the EC50 (HCT-15) of the same compound?
Answer: 2.48 µg/mL (≈ 5.34 µM)

Question: For `C[C@H](/C=C/[C@@H](C)[C@H]1C[C@@H](O)[C@H]2[C@@H]3C[C@H](O)[C@H]4C[C@@H](O)CC[C@]4(C)[C@H]3CC[C@@]21C)[C@H](C)CO` [CERTONARDOSTEROL D4], which EC50 (A549) is on record?
Answer: 1.75 µg/mL (≈ 3.9 µM)

Question: What about the EC50 (XF498) of the same compound?
Answer: 1.22 µg/mL (≈ 2.72 µM)

Question: What about the EC50 (SK-MEL-2) of the same compound?
Answer: 0.48 µg/mL (≈ 1.07 µM)

Question: What about the EC50 (SK-OV-3) of the same compound?
Answer: 1.51 µg/mL (≈ 3.37 µM)

Question: What about the EC50 (HCT-15) of the same compound?
Answer: 1.25 µg/mL (≈ 2.79 µM)

Question: `CC(C)[C@@H](CCO)CC[C@@H](C)[C@H]1C[C@H](O)[C@H]2[C@@H]3C[C@@H](O)[C@H]4C[C@@H](O)CC[C@]4(C)[C@H]3CC[C@@]21C` [CERTONARDOSTEROL E2] was tested. Which EC50 (A549) did it give?
Answer: 0.48 µg/mL (≈ 1.03 µM)

Question: What about the EC50 (XF498) of the same compound?
Answer: 0.4 µg/mL (≈ 0.861 µM)

Question: And the EC50 (SK-MEL-2)?
Answer: 0.28 µg/mL (≈ 0.602 µM)

Question: What about the EC50 (SK-OV-3) of the same compound?
Answer: 0.83 µg/mL (≈ 1.79 µM)

Question: And the EC50 (HCT-15)?
Answer: 1.26 µg/mL (≈ 2.71 µM)

Question: How did the EC50 (A549) turn out when `CC(C)[C@@H](CCO)CC[C@@H](C)[C@H]1[C@@H](O)[C@@H](O)[C@H]2[C@@H]3C[C@H](O)[C@H]4C[C@@H](O)CC[C@]4(C)[C@H]3CC[C@]12C` [CERTONARDOSTEROL N1] was run?
Answer: 0.82 µg/mL (≈ 1.71 µM)

Question: What about the EC50 (XF498) of the same compound?
Answer: 0.43 µg/mL (≈ 0.894 µM)

Question: And the EC50 (SK-MEL-2)?
Answer: 0.4 µg/mL (≈ 0.832 µM)

Question: What about the EC50 (SK-OV-3) of the same compound?
Answer: 0.9 µg/mL (≈ 1.87 µM)

Question: What about the EC50 (HCT-15) of the same compound?
Answer: 1.25 µg/mL (≈ 2.6 µM)

Question: Which results are given for `CC(C)[C@@H](CCO)CC[C@@H](C)[C@H]1[C@@H](O)[C@@H](O)[C@@H]2[C@]1(C)CC[C@@H]1[C@@]3(C)CC[C@H](O)C[C@@H]3[C@@H](O)C[C@]12O` [CERTONARDOSTEROL O1]?
Answer: EC50 (A549): 8.32 µg/mL (≈ 16.7 µM); EC50 (XF498): 6.92 µg/mL (≈ 13.9 µM); EC50 (SK-MEL-2): 5.32 µg/mL (≈ 10.7 µM); EC50 (SK-OV-3): 6.59 µg/mL (≈ 13.3 µM); EC50 (HCT-15): 17.7 µg/mL (≈ 35.6 µM)

Question: What does the source list for `CC(C)[C@@H](CCO)CC[C@@H](C)[C@H]1[C@@H](O)[C@@H](O)[C@@H]2[C@]1(C)CC[C@@H]1[C@@]3(C)CC[C@H](O)[C@H](O)[C@@H]3[C@@H](O)C[C@]12O` [CERTONARDOSTEROL P1]?
Answer: EC50 (A549): 3.3 µg/mL (≈ 6.44 µM); EC50 (XF498): 3.48 µg/mL (≈ 6.79 µM); EC50 (SK-MEL-2): 2.5 µg/mL (≈ 4.88 µM); EC50 (SK-OV-3): 3.5 µg/mL (≈ 6.83 µM); EC50 (HCT-15): 4.39 µg/mL (≈ 8.56 µM)

Question: `COc1cccc2c1C(=O)c1c(O)c3c(c(O)c1C2=O)C[C@@](O)(C(=O)CO)C[C@@H]3O[C@H]1C[C@H](N)[C@H](O)[C@H](C)O1` [DOXORUBICIN] was tested. Which EC50 (A549) did it give?
Answer: 0.01 µg/mL (≈ 0.0184 µM)

Question: What about the EC50 (XF498) of the same compound?
Answer: 0.06 µg/mL (≈ 0.11 µM)

Question: What about the EC50 (SK-MEL-2) of the same compound?
Answer: 0.02 µg/mL (≈ 0.0368 µM)

Question: And the EC50 (SK-OV-3)?
Answer: 0.08 µg/mL (≈ 0.147 µM)

Question: And the EC50 (HCT-15)?
Answer: 0.06 µg/mL (≈ 0.11 µM)
